Legend:
[1] = target: PIK3CB (Human) (UniProt P42338); experiment: Inhibition of PIK3CB Kinase Activity
[2] = target: PIK3CG (human) (UniProt P48736); experiment: Inhibition of PIK3CG Kinase Activity
[3] = target: PIK3CA (human) (UniProt P42336); experiment: Inhibition of PIK3CA Kinase Activity
[4] = target: PIK3CD (Human) (UniProt O00329); experiment: Inhibition of PIK3CD Kinase Activity
PIK3CD (Human), sequence (O00329 whole entry, looked up): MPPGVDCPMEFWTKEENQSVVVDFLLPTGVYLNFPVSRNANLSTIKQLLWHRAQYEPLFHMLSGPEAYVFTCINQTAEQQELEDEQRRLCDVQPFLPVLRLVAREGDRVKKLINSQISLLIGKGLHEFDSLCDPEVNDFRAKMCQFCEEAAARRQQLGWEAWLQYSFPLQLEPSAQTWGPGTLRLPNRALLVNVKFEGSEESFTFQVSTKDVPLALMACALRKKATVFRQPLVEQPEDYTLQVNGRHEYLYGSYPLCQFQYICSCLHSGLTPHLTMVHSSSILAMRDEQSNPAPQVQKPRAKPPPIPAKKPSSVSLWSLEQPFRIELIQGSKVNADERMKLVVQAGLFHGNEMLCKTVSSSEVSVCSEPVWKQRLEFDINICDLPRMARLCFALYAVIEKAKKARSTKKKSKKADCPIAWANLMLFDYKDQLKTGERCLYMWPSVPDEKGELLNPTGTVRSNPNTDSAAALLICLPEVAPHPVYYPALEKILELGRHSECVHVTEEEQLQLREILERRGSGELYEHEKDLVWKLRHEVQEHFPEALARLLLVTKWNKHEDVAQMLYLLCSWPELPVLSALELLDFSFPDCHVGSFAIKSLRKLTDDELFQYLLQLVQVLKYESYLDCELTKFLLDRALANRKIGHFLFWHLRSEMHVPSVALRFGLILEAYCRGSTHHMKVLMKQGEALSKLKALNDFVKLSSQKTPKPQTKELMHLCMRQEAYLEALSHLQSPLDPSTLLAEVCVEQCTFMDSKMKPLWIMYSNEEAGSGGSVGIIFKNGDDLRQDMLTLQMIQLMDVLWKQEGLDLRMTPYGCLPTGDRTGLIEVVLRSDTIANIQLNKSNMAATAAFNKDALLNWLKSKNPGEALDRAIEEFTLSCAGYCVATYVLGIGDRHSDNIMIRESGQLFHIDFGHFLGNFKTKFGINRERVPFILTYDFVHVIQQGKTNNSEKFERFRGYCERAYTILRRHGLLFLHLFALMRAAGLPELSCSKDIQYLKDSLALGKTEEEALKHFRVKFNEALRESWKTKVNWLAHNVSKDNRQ

PIK3CG (human), sequence (P48736 whole entry, looked up): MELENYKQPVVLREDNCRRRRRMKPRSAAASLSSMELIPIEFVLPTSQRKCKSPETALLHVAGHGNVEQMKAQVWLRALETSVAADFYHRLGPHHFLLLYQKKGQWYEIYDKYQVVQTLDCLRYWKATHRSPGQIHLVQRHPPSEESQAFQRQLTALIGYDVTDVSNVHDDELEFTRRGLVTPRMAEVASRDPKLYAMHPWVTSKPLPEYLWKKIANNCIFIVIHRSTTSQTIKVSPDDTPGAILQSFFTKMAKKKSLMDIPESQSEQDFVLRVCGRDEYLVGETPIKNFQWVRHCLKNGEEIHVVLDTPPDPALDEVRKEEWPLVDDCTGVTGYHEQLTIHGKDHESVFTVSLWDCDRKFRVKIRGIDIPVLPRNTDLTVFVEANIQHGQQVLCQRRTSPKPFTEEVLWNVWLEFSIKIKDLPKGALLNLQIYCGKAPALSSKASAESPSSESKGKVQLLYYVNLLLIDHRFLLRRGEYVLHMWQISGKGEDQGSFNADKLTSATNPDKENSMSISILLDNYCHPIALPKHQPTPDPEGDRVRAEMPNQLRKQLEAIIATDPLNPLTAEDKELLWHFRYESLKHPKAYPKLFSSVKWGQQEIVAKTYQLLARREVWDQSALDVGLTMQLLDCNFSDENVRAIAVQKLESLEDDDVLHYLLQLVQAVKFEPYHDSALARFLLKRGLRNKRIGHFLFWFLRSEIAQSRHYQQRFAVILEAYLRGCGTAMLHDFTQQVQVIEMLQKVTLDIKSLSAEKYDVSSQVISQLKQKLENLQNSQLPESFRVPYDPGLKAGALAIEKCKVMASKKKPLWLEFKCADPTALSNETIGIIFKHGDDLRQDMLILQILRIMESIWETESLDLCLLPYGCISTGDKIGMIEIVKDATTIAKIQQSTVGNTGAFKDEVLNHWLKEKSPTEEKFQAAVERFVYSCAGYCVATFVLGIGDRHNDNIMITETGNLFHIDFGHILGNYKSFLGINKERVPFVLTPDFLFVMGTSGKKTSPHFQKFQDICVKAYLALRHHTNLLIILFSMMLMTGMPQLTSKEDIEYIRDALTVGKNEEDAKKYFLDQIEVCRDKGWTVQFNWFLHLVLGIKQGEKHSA
PIK3CB (Human), sequence (P42338 whole entry, looked up): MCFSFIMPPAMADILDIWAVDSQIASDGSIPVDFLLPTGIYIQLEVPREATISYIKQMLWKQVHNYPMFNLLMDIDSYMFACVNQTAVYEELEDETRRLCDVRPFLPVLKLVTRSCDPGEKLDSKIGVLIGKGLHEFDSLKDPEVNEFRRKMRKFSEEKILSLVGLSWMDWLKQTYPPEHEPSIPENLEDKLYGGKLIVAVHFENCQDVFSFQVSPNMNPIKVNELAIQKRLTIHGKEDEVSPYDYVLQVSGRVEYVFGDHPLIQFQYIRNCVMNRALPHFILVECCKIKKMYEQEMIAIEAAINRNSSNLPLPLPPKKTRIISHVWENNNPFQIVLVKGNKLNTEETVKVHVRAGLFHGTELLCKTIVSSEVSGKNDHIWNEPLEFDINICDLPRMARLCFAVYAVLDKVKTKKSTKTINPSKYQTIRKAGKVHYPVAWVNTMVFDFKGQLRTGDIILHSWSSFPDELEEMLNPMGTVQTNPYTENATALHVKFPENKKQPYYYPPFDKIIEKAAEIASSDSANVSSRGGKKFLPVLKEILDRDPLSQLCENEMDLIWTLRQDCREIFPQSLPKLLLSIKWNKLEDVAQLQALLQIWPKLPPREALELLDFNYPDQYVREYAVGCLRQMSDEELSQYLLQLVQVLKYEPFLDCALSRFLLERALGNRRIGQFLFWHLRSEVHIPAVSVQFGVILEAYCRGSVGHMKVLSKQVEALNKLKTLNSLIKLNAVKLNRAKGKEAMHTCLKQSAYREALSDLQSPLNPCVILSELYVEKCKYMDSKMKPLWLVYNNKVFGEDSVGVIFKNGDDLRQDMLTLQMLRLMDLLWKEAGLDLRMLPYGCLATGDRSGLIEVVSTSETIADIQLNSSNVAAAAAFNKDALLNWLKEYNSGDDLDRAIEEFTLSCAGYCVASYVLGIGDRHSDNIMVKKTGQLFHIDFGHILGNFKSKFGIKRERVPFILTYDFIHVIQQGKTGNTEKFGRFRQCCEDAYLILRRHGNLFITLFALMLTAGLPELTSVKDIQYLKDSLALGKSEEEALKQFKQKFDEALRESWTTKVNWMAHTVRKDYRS
PIK3CA (human), sequence (P42336 whole entry, looked up): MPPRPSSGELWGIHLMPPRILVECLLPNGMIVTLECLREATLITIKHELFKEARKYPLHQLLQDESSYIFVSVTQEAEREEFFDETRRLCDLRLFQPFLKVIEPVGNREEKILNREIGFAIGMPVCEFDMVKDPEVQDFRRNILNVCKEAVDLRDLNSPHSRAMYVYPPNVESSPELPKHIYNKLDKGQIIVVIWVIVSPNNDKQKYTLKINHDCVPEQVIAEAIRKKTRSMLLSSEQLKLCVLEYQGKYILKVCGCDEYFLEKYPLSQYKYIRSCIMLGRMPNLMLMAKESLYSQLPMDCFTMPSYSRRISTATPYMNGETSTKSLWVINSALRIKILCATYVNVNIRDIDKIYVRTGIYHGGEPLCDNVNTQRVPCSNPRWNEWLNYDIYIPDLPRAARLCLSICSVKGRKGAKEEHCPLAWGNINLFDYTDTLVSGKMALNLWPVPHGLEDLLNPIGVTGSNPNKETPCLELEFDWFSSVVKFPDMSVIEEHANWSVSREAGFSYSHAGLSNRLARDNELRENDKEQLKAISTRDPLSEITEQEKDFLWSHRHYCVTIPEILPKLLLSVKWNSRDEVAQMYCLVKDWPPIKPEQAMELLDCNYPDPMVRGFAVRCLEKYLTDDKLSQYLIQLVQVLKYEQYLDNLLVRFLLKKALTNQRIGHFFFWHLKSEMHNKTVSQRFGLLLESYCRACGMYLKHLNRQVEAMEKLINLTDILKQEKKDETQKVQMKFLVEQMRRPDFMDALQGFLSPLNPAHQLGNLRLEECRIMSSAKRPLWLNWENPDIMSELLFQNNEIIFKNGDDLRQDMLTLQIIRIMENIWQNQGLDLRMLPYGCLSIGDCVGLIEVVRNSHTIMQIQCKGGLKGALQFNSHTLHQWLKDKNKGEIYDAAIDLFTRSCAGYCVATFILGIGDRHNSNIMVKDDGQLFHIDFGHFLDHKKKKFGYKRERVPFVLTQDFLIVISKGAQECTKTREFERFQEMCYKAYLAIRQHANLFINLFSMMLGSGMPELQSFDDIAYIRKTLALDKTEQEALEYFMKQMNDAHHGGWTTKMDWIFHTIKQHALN

SMILES	IC50 [1] [nM]	IC50 [2] [nM]	IC50 [3] [nM]	IC50 [4] [nM]
CC(C)(C)OC(=O)CCNC(=O)Nc1nc2ccc(-c3cccc(S(=O)(=O)NCCO)c3)cc2s1	< 1000	< 1000	–	–
CC(=O)Nc1nc2ccc(-c3cccc(S(=O)(=O)NCCCO)c3)cc2s1	–	< 1000	< 1000	< 1000
CC(=O)Nc1nc2ccc(-c3cccc(S(=O)(=O)NCC(O)CO)c3)cc2s1 (centres undefined)	–	< 1000	< 1000	< 1000
CC(=O)Nc1nc2ccc(-c3cccc(S(C)(=O)=O)c3)cc2s1	–	< 1000	< 1000	< 1000
CC(=O)Nc1nc2ccc(-c3ccc(C)c(S(C)(=O)=O)c3)cc2s1	–	–	–	< 1000
CC(C)(C)OCCCNC(=O)Nc1nc2ccc(-c3cccc(S(C)(=O)=O)c3)cc2s1	–	–	> 20000	> 20000
CC(=O)Nc1nc2ccc(-c3cccc(NS(=O)(=O)N(C)C)c3)cc2s1	–	< 1000	–	–
CC(=O)Nc1nc2ccc(-c3ccc(Cl)c(S(=O)(=O)NCCO)c3)cc2s1	–	< 1000	< 1000	< 1000
COc1cc(-c2ccc3nc(NC(=O)NCC(=O)N4CCOCC4)sc3c2)ccc1O	< 1000	< 1000	< 1000	< 1000
CC(=O)Nc1nc2ccc(-c3cccc(S(=O)(=O)N(CCO)CCO)c3)cc2s1	–	< 1000	< 1000	< 1000
CC(=O)Nc1nc2ccc(-c3cccc(S(=O)(=O)N4CCOCC4)c3)cc2s1	–	< 1000	< 1000	–
COc1cc(-c2ccc3nc(NC(=O)NCCC(=O)OC(C)(C)C)sc3c2)ccc1O	–	< 1000	–	–
CS(=O)(=O)c1cccc(-c2ccc3nc(NC(=O)NCC(=O)N4CCOCC4)sc3c2)c1	–	< 1000	< 1000	< 1000
CC(=O)Nc1nc2ccc(-c3ccncc3)cc2s1	–	< 1000	–	–
COc1cc(-c2ccc3nc(NC(=O)NCCc4nc(C(C)C)no4)sc3c2)ccc1O	< 1000	–	–	–
COC(=O)c1cccc(-c2ccc3nc(NC(C)=O)sc3c2)c1	–	> 20000	–	–
CC(=O)Nc1nc2ccc(-c3cccc(S(=O)(=O)N4CCC(O)CC4)c3)cc2s1	–	< 1000	< 1000	< 1000
CC(=O)Nc1cn2nc(-c3cccc(S(=O)(=O)NCCO)c3)ccc2n1	–	< 1000	< 1000	< 1000
CS(=O)(=O)c1cccc(-c2ccc3nc(NC(=O)c4ccco4)sc3c2)c1	–	–	> 20000	> 20000
CC(C)c1noc(CCNC(=O)Nc2nc3ccc(-c4cccc(S(=O)(=O)N(C)C)c4)cc3s2)n1	–	–	> 20000	–
CC(=O)Nc1nc2ccc(-c3cccc(S(=O)(=O)CCCO)c3)cc2s1	–	–	< 1000	< 1000
CC(=O)Nc1nc2ccc(-c3cccc(S(=O)(=O)NCCO)c3)cc2s1	< 1000	< 1000	< 1000	< 1000

SMILES	IC50 [1] [nM]	IC50 [2] [nM]	IC50 [3] [nM]	IC50 [4] [nM]
CC(=O)Nc1nc2ccc(-c3cccc(C(N)=O)c3)cc2s1	–	< 1000	–	–
CN(C)S(=O)(=O)c1cccc(-c2ccc3nc(NC(=O)NCCC(=O)OC(C)(C)C)sc3c2)c1	< 1000	< 1000	> 20000	–
CC(=O)Nc1nc2ccc(-c3cccc(S(=O)(=O)NCCN4CCOCC4)c3)cc2s1	–	< 1000	< 1000	< 1000
CS(=O)(=O)c1cccc(-c2ccc3nc(NC(=O)NCCC(=O)N4CCOCC4)sc3c2)c1	< 1000	< 1000	–	–
CC(=S)Nc1cn2nc(-c3cccc(S(C)(=O)=O)c3)ccc2n1	–	< 1000	< 1000	< 1000
CC(=O)Nc1nc2ccc(-c3cccc(S(=O)(=O)NC4CCCOC4)c3)cc2s1 (centres undefined)	–	< 1000	< 1000	< 1000
CS(=O)(=O)c1cccc(-c2ccc3nc(NC(=O)NCCC(=O)N4CCCC4)sc3c2)c1	< 1000	< 1000	–	< 1000
COCCNS(=O)(=O)c1cccc(-c2ccc3nc(NC(C)=O)sc3c2)c1	–	< 1000	< 1000	< 1000
CC(=O)Nc1nc2ccc(-c3cncc(S(N)(=O)=O)c3)cc2s1	< 1000	< 1000	< 1000	< 1000
CC(=O)Nc1nc2ccc(-c3cccc(S(=O)(=O)N4CCCC(O)C4)c3)cc2s1 (centres undefined)	–	< 1000	< 1000	< 1000
CCC(=O)Nc1nc2ccc(-c3cccc(S(C)(=O)=O)c3)cc2s1	–	–	–	< 1000
CS(=O)(=O)c1cccc(-c2ccc3nc(NC(=O)C(=O)N4CCCC4)sc3c2)c1	–	–	–	< 1000
CC(=O)Nc1nc2ccc(-c3cccc(S(=O)(=O)NC(CO)CO)c3)cc2s1	–	< 1000	< 1000	< 1000
COc1cc(-c2ccc3nc(NC(C)=O)sc3c2)ccc1O	< 1000	< 1000	< 1000	< 1000
CCNS(=O)(=O)c1cccc(-c2ccc3nc(NC(C)=O)sc3c2)c1	–	< 1000	< 1000	< 1000
CC(=O)Nc1nc2ccc(-c3cccc(S(=O)(=O)CCO)c3)cc2s1	–	< 1000	–	< 1000
CC(=O)Nc1cn2cc(-c3cccc(S(C)(=O)=O)c3)ccc2n1	–	–	< 1000	< 1000
CC(C)c1noc(CCNC(=O)Nc2nc3ccc(-c4cccc(S(=O)(=O)NCCO)c4)cc3s2)n1	< 1000	< 1000	–	–
CC(=O)Nc1nc2ccc(-c3cccc(S(C)(=O)=O)n3)cc2s1	> 20000	–	< 1000	< 1000
COc1cccc(-c2ccc3nc(NC(C)=O)sc3c2)c1	–	–	–	> 20000
COc1cc(-c2ccc3nc(NC(C)=O)cn3n2)ccc1O	< 1000	< 1000	< 1000	< 1000
CC(=O)Nc1nc2ccc(-c3ccc(O)c(F)c3)cc2s1	–	< 1000	–	–

SMILES	IC50 [1] [nM]	IC50 [2] [nM]	IC50 [3] [nM]	IC50 [4] [nM]
CC(=O)Nc1nc2ccc(-c3cccc(S(=O)(=O)N(C)CCO)c3)cc2s1	< 1000	< 1000	< 1000	< 1000
CC(=O)Nc1nc2ccc(-c3cccc(S(=O)(=O)N4CCN(C)C(=O)C4)c3)cc2s1	–	–	< 1000	–
CC(=O)Nc1nc2ccc(-c3cccc(S(=O)(=O)N4CCCC(N)C4)c3)cc2s1 (centres undefined)	< 1000	< 1000	< 1000	< 1000
CC(=O)Nc1nc2ccc(-c3cccc(S(=O)(=O)NC4CCCN(C(=O)OC(C)(C)C)C4)c3)cc2s1 (centres undefined)	–	–	< 1000	–
CC(=O)Nc1nc2ccc(-c3cccc(S(N)(=O)=O)c3)cc2s1	–	< 1000	< 1000	< 1000
CC(C)(C)OC(=O)CCNC(=O)Nc1nc2ccc(-c3cccc(S(C)(=O)=O)c3)cc2s1	< 1000	< 1000	> 20000	> 20000
CC(=O)Nc1nc2ccc(-c3cccc(S(=O)(=O)N4CCCC(NC(=O)OC(C)(C)C)C4)c3)cc2s1 (centres undefined)	–	–	< 1000	–
CC(=O)Nc1nc2ccc(-c3cc(C(F)(F)F)cc(S(=O)(=O)NCCO)c3)cc2s1	–	–	> 20000	–
CS(=O)(=O)c1cccc(-c2ccc3nc(NC(=O)NCCc4noc(-c5ccccc5)n4)sc3c2)c1	–	> 20000	–	–
CS(=O)(=O)c1cccc(-c2ccc3nc(NC=O)sc3c2)c1	> 20000	–	–	–
CC(=O)Nc1nc2ccc(-c3cncc(S(=O)(=O)N(C)C)c3)cc2s1	< 1000	< 1000	< 1000	< 1000
CC(=O)Nc1cn2nc(-c3cccc(S(C)(=O)=O)c3)ccc2n1	–	< 1000	< 1000	< 1000
CC(=O)Nc1nc2ccc(-c3cccc(C(=O)NCCO)c3)cc2s1	> 20000	–	–	–
CC(C)n1nnc(CCNC(=O)Nc2nc3ccc(-c4cccc(S(C)(=O)=O)c4)cc3s2)n1	–	< 1000	–	–
CN(C)C(=O)CNC(=O)Nc1nc2ccc(-c3cccc(S(C)(=O)=O)c3)cc2s1	–	< 1000	< 1000	< 1000
CC(=O)Nc1nc2ccc(-c3cccc(NS(C)(=O)=O)c3)cc2s1	–	< 1000	< 1000	< 1000
CC(=O)Nc1nc2ccc(-c3cccc(S(=O)(=O)NC4CCCNC4)c3)cc2s1 (centres undefined)	–	< 1000	< 1000	< 1000
CCOC(=O)CCNC(=O)Nc1nc2ccc(-c3cccc(S(C)(=O)=O)c3)cc2s1	< 1000	< 1000	–	–
CC(=O)Nc1nc2ccc(-c3cccc(S(=O)(=O)N(C)C)c3)cc2s1	–	< 1000	< 1000	–
CC(C)n1cnc(CCNC(=O)Nc2nc3ccc(-c4cccc(S(C)(=O)=O)c4)cc3s2)c1	< 1000	< 1000	–	–
